According to PMC12799524, “Putative new biomarkers for renal transporter-mediated drug-drug interactions: Characterization as substrates of organic cation transporter 2, multidrug and toxin extrusion protein 1, and other important drug transporters” (Drug Metabolism and Disposition, 2025):
Read-outs that look alike come from different tables or passages of the source. Marks after values point to notes of the source that are not given here.

How the values were obtained:
human OCT2 = target: T1, human OCT2 (Homo sapiens, UniProt O15244); assay: Uptake assay in HEK-OCT2 vs HEK-VC cells; type: in vitro ADME; design: expressed in transfected cells; host or cells: HEK293 (HEK-OCT2); details: for Uptake in HEK-OCT2 cells compared to HEK-VC cells (in words) / Effect of cimetidine on uptake in HEK-OCT2 cells: 10 and 100 μM substrate; for Effect of cimetidine on uptake in HEK-OCT2 cells: cimetidine 50 μM; for In Vitro OCT2 (substrate class): summary of in vitro uptake/transport results
T1 sequence (O15244 1-555): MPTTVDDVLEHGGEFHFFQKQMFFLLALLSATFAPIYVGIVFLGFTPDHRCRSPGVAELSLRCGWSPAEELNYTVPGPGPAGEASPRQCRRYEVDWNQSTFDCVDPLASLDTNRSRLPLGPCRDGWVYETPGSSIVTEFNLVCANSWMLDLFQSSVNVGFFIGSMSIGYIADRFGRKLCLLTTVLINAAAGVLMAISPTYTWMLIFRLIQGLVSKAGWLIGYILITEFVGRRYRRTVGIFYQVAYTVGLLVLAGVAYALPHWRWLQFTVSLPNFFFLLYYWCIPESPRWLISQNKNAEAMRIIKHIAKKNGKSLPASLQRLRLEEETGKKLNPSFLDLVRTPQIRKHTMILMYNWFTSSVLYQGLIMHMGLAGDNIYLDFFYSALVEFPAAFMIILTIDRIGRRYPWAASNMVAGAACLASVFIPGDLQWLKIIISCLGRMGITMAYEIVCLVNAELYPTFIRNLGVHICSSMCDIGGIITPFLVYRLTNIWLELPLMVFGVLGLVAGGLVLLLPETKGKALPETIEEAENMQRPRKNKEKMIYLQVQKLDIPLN
Protocol: (§1) Transport experiments were performed 48 hours after seeding.
(§2) The intracellular background of all 5 compounds in HEK cells at the beginning of the uptake experiments was investigated 48 hours after seeding without incubation with transport buffer (ie, 0 minutes). […] Then, cells were lysed with ice-cold 80% MeOH containing the aforementioned recovery standards. In addition, the impact of a 5-minute incubation period with transport buffer without added substance was investigated.

human OATP1B1 = target: T2, human OATP1B1 (Homo sapiens, UniProt Q9Y6L6); assay: Uptake assay in HEK-OATP1B1 vs HEK-VC cells; type: in vitro ADME
T2 construct: expressed in transfected cells; host or cells: HEK293 (HEK-OATP1B1)
T2 sequence (Q9Y6L6 1-691): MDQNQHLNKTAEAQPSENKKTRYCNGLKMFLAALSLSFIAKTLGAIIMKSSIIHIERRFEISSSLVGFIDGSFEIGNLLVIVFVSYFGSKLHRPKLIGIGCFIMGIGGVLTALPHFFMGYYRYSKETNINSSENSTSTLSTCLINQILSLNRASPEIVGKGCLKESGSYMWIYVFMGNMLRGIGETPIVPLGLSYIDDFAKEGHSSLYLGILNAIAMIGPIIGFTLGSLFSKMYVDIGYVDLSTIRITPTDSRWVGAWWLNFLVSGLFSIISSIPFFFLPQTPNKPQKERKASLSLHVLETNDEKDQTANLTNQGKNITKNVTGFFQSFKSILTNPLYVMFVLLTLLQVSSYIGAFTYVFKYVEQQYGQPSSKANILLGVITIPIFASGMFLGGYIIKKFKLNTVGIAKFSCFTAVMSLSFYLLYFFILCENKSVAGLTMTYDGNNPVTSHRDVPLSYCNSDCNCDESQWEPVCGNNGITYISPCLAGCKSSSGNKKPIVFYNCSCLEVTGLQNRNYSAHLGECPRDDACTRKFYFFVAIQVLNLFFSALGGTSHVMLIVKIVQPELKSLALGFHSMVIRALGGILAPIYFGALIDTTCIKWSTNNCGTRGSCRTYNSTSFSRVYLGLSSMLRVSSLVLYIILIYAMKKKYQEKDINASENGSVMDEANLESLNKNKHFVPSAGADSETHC
Protocol: as §1

human OCT2 and MATE1 = assay: Intracellular accumulation and transcellular transport in double-transfected MDCK-OCT2-MATE1 monolayers; type: in vitro ADME; details: for Intracellular concentration in MDCK-OCT2-MATE1 cells vs MDCK-VC cells: 10 μM basal, 60 minutes
Protocol: The intracellular accumulation and transcellular, basal to apical transport experiments were performed as previously described in monolayers of polarized single-transfected (MDCK-OCT2, MDCK-MATE1) and double-transfected (MDCK-OCT2-MATE1) MDCK cells, MDCK control cells (MDCK-VC), or Caco-2 cells.[22] In brief, cell monolayers were grown in cell culture inserts on porous membranes. For MDCK-VC, MDCK-OCT2 and Caco-2, 5 × 10^5 cells were used per well; for MDCK-OCT2-MATE1, 6 × 10^5 cells were used, and for MDCK-MATE1, 8 × 10^5 cells were used per well. Cells were grown to confluence for 72 hours, induced with 10 mM sodium butyrate 48 hours after seeding for 24 hours (MDCK only), and subsequently used for transport experiments.
In general, after the cell culture medium was removed from both sides of the monolayers, cells were washed at 37 °C with transport buffer of the same composition as described in the previous section. Experiments were started by replacing the medium in the basal compartment with medium containing the putative biomarkers or [^3H]-labeled positive control substrates. The pH of the buffer on the basal side was 7.3 and 6.5 on the apical side for MDCK cells, whereas it was 7.3 on either side for Caco-2 cells. Cells were incubated at 37 °C and the buffer from the apical compartment was taken after 60 minutes for MDCK cells and after 240 minutes for Caco-2 cells. In case of Caco-2 cells, endogenous P-gp was inhibited by adding 2 μM of valspodar to the basal compartment. To measure the cellular accumulation of the test compounds, the remaining medium was removed at the end of the incubation period and the cell monolayers were rapidly rinsed 3 times with ice-cold 0.9% NaCl in water. Filters were detached from the chambers and placed into 500 μL of 80% MeOH containing the aforementioned recovery standards to lyse cells for subsequent LC-MS analysis or into 600 μL of 0.2% SDS (control experiments only). In the control experiments, the radioactivity of the collected apical medium and the solubilized cell monolayers and protein concentrations of the cell lysates were measured in the same way as described for the experiments with HEK cells.
as §2

[1] = design: method as in PMID 39148267; details: humans, cited from earlier work; for In Vivo Change of Renal Excretion, Cimetidine: median log2-fold change after treatment with cimetidine; for In Vivo Change of Renal Excretion, Probenecid: median log2-fold change after treatment with probenecid; for In Vivo Change of Renal Excretion, Rifampin: median log2-fold change after treatment with rifampin; for In Vivo Change of Renal Excretion, Verapamil: median log2-fold change after treatment with verapamil
[2] = 10 μM substrate, 5 minutes, HEK-VC set to 100%
[3] = listed as 5-amino valeric acid betaine

| SMILES | Uptake in HEK-OCT2 cells compared to HEK-VC cells (human OCT2; [2]) [%] | Uptake in HEK-OCT2 cells compared to HEK-VC cells (in words) (human OCT2; 5 minutes) | Effect of cimetidine on uptake in HEK-OCT2 cells (human OCT2; 5 minutes) | In Vitro OCT2 (substrate class) (human OCT2) | In Vitro OATP1B1 (substrate class) (human OATP1B1) | Intracellular concentration in MDCK-OCT2-MATE1 cells vs MDCK-VC cells (human OCT2 and MATE1) | In Vivo Change of Renal Excretion, Cimetidine [1] | In Vivo Change of Renal Excretion, Probenecid [1] | In Vivo Change of Renal Excretion, Rifampin [1] | In Vivo Change of Renal Excretion, Verapamil [1] | other results |
| --- | --- | --- | --- | --- | --- | --- | --- | --- | --- | --- | --- |
| NCCc1c[nH]c2ccc(O)cc12 [Serotonin, serotonin] | 3960 | significantly higher | significantly reduced | ++ | - | significantly higher | –2.89 ^c log2-fold change | 0.06 log2-fold change | –0.06 log2-fold change | 0.00 log2-fold change | Uptake ratio in HEK-OCT2 cells compared to HEK-VC cells (human OCT2; 100 μM substrate, 5 minutes, HEK-VC set to 100%): 6281%; Plasma concentrations, effect of cimetidine ([1]; cimetidine): did not sensitively change; Urine to plasma ratio, change by cimetidine ([1]; cimetidine): –1.94 log2-fold change; In Vivo Change of Renal Excretion, Cimetidine ([1]; listed as serotonin): –2.89 log2-fold change |
| C[N+](C)(C)CCCCC(=O)[O-] [5-Amino valeric acid betaine, 5-amino valeric acid betaine] |  |  | significantly reduced | + | 0 (significant uptake in HEK cells, but less than 300% of respective control cells or significant reduction of transcellular transport in Caco-2 cells, but reduction not below 50% of respective control without valspodar) | no significant difference | –4.28 ^c log2-fold change | –0.56 ^c log2-fold change | –0.21 log2-fold change | –1.00 log2-fold change | Intracellular background in HEK-OCT2 cells compared to HEK-VC cells (human OCT2; 0 minutes, without added substance): lower; Intracellular concentration in HEK-OCT2 cells compared to HEK-VC cells (in words) (human OCT2; 10 μM substrate, 5 minutes): comparable; Intracellular concentration in HEK-OCT2 cells compared to HEK-VC cells (in words) (human OCT2; 100 μM substrate, 5 minutes): significantly higher; Intracellular background in HEK-OCT2 cells compared to HEK-VC cells (human OCT2; 5 minutes in transport buffer without added substance): lower; Intracellular background in MDCK-OCT2-MATE1 cells (human OCT2 and MATE1; 60 minutes without added substance): no 5-amino valeric acid betaine could be detected; Renal elimination, change after cimetidine ([1]; cimetidine): –3.62 log2-fold change; In Vivo Change of Renal Excretion, Cimetidine [1, 3]: –4.28 log2-fold change; In Vivo Change of Renal Excretion, Probenecid [1, 3]: –1.00 log2-fold change |
| NCCc1ccc(O)cc1 [Tyramine, tyramine] | 3245 | significantly higher | significantly reduced | ++ | 0 (significant uptake in HEK cells, but less than 300% of respective control cells or significant reduction of transcellular transport in Caco-2 cells, but reduction not below 50% of respective control without valspodar) | no significant difference | –3.00 ^c log2-fold change | –0.82 log2-fold change | –0.11 log2-fold change | –0.22 log2-fold change |  |
| Cn1cnc(CCN)c1 [1-Methylhistamine, 1-methylhistamine] |  |  |  |  | - | significantly higher | –2.01 ^c log2-fold change | –0.25 log2-fold change | –0.07 log2-fold change | 0.03 log2-fold change |  |
